Test results taken from publication PMC7541926 (Preventive Nutrition and Food Science, 2020).

Columns and labels:
[1] = target: T1, Saccharomyces cerevisiae α-glucosidase (Saccharomyces cerevisiae, UniProt P53341); assay: Enzyme kinetics of α-glucosidase inhibitory activity; conditions: Lineweaver-Burk double reciprocal plot
[2] = target: T1, Saccharomyces cerevisiae α-glucosidase; assay: Enzyme assay for α-glucosidase inhibitory activity

T1 sequence (P53341 whole entry): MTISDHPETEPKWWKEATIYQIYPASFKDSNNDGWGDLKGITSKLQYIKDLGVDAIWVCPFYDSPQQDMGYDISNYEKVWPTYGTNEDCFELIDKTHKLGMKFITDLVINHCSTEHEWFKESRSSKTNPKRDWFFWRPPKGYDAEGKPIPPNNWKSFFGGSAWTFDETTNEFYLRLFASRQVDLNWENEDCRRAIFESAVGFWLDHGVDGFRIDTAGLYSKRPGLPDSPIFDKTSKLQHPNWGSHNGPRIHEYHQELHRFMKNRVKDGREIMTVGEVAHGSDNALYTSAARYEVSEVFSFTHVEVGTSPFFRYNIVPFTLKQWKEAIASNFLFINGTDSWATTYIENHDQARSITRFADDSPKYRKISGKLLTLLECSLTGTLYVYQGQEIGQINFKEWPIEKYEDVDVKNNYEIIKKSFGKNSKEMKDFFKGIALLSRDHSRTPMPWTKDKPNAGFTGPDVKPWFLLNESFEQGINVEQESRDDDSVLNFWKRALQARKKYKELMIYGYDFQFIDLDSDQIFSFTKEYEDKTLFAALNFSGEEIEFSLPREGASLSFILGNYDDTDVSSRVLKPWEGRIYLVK

SMILES	Mode of inhibition [1]	IC50 [2] [µM]
COc1cc(-c2[o+]c3cc(O)cc(O)c3cc2O)cc(OC)c1O [Malvidin, malvidin chloride]	Mixed type, close to non-competitive	54.7 ± 2.14
COc1cc(-c2[o+]c3cc(O)cc(O)c3cc2O)cc(O)c1O [Petunidin, petunidin chloride]	Competitive	30.8 ± 1.17
C[C@H]1O[C@H](O[C@H]2[C@H](O)[C@@H](O)[C@@H](O[C@H]3[C@H](O)[C@@H](O)C(O)O[C@@H]3CO)O[C@@H]2CO)[C@H](O)[C@@H](O)[C@@H]1N[C@H]1C=C(CO)[C@@H](O)[C@H](O)[C@H]1O (some centres unmarked) [Acarbose, acarbose, reference compound]	Competitive	–

More lines, now with the values ahead:

Mode of inhibition [1]	IC50 [2] [µM]	SMILES
Mixed type, close to non-competitive	17 ± 1.35	Oc1cc(O)c2cc(O)c(-c3ccc(O)c(O)c3)[o+]c2c1 [Cyanidin, cyanidin chloride]
Mixed type, close to non-competitive	4.11 ± 0.49	Oc1cc(O)c2cc(O)c(-c3cc(O)c(O)c(O)c3)[o+]c2c1 [Delphinidin, delphinidin chloride]
Mixed type, close to non-competitive	50.3 ± 4	Oc1ccc(-c2[o+]c3cc(O)cc(O)c3cc2O)cc1 [Pelargonidin, pelargonidin chloride]
